The values below come from patent US8183263B2 (priority 2007, dated 2012).

Bounds are passed on as bounds.

In one experiment the test system is HCV replicon. Kind of experiment: HCV replicon replication assay (NPT level by captured ELISA). In kind it is cell-based. As to conditions: Hepatitis C virus, 72 h; Huh-7 HCV replicon-containing cells, three days incubation; read-out: Activity (inhibition of HCV replicon replication). The gist of the method: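 Huh-7 cells carrying HCV subgenomic replicon (NS3–NS5B, neo reporter) treated 3 days at 37 °C with 6 concentrations from 10 to 0.03 micromolar in G418-free medium, equal DMSO across wells. Replication measured on day four as NPTII level by in-cell captured ELISA on fixed cells; interferon alpha as positive control.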
Background: Replicon systems follow genome replication, usually without infectious particles.
Consider `CCCCCc1nc2cc(Nc3nc(-c4cccnc4)cs3)ccc2o1` [Cmp 64], for which the EC50 was less than 1000 nM.

`CCCCCOc1cc(Nc2nc(-c3cccnc3)c(F)s2)ccc1C(F)(F)F` [Cmp 79, 5-fluoro-N-(3-(pentyloxy)-4-(trifluoromethyl)phenyl)-4-(pyridin-3-yl)thiazol-2-amine]: the EC50 is 1000 to 10000 nM.

In the case of `CCCCCCCCc1ccc(Nc2nc(-c3ccncc3)c(F)s2)cc1C(F)(F)F` [Cmp 167, 5-fluoro-N-(4-octyl-3-(trifluoromethyl)phenyl)-4-(pyridin-4-yl)thiazol-2-amine], the EC50 was less than 1000 nM.

For the molecule `CCc1ccc(Oc2ccc(Nc3nc(-c4cccnc4)c(F)s3)cc2C(C)=O)cc1` [Cmp 131, 1-(2-(4-ethylphenoxy)-5-(5-fluoro-4-(pyridin-3-yl)thiazol-2-ylamino)phenyl)ethanone], the EC50 is less than 1000 nM.

Turning to `CCCCCCCCc1ccc(Nc2nc(-c3ccc(O)nc3)cs2)cc1C(F)(F)F` [Cmp 100, 5-(2-(4-octyl-3-(trifluoromethyl)phenylamino)thiazol-4-yl)pyridin-2-ol], the EC50 is less than 1000 nM.

Take `COc1ncc(-c2csc(Nc3ccc(CCCCCc4ccc(C)cc4)c(C(F)(F)F)c3)n2)cn1` [Cmp 74, 4-(2-methoxypyrimidin-5-yl)-N-(4-(5-p-tolylpentyl)-3-(trifluoromethyl)phenyl)thiazol-2-amine]: the EC50 is less than 1000 nM.

As for `CCCCCOc1cc(Nc2nc(-c3cccnc3)cs2)ccc1C#N` [Cmp 27, 2-(pentyloxy)-4-(4-(pyridin-3-yl)thiazol-2-ylamino)benzonitrile], the EC50 was less than 1000 nM.

In the case of `CCCCCCCCOc1ccc(Nc2nc(-c3cncc(O)c3)cs2)cc1C(F)(F)F` [Cmp 152, 5-(2-(4-(octyloxy)-3-(trifluoromethyl)phenylamino)thiazol-4-yl)pyridin-3-ol], the EC50 is less than 1000 nM.

Consider `Fc1sc(Nc2ccc(C(F)(F)F)c(Oc3ccccc3)c2)nc1-c1cccnc1` [Cmp 108, 5-fluoro-N-(3-phenoxy-4-(trifluoromethyl)phenyl)-4-(pyridin-3-yl)thiazol-2-amine], for which the EC50 was less than 1000 nM.

Consider `CCCCCc1nc2ccc(Nc3nc(-c4cccnc4)c(F)s3)cc2o1` [Cmp 67, N-(5-fluoro-4-(pyridin-3-yl)thiazol-2-yl)-2-pentylbenzo[d]oxazol-6-amine], for which the EC50 is less than 1000 nM.

Regarding `CCCCCCCCOc1cc(Nc2nc(-c3cnc(OC)nc3)cs2)ccc1C(F)(F)F` [Cmp 71, 4-(2-methoxypyrimidin-5-yl)-N-(3-(octyloxy)-4-(trifluoromethyl)phenyl)thiazol-2-amine], the EC50 is less than 1000 nM.

Take `CCCC/C=C\CCOc1ccc(Nc2nc(-c3cccnc3)c(F)s2)cc1C(F)(F)F` [Cmp 172, (Z)-5-fluoro-N-(4-(oct-3-enyloxy)-3-(trifluoromethyl)phenyl)-4-(pyridin-3-yl)thiazol-2-amine]: the EC50 was less than 1000 nM.

As to `Fc1sc(Nc2ccc(Oc3ccc(Cl)cc3)c(C(F)(F)F)c2)nc1-c1cccnc1` [Cmp 97, N-(4-(4-chlorophenoxy)-3-(trifluoromethyl)phenyl)-5-fluoro-4-(pyridin-3-yl)thiazol-2-amine], the EC50 is less than 1000 nM.

Consider `FC(F)(F)c1cc(Nc2nc(-c3cccnc3)cs2)ccc1CCCOc1ccc(Cl)cc1` [Cmp 103, N-(4-(3-(4-chlorophenoxy)propyl)-3-(trifluoromethyl)phenyl)-4-(pyridin-3-yl)thiazol-2-amine], for which the EC50 was less than 1000 nM.

On to `Cc1cccc(OCCCc2ccc(Nc3nc(-c4cccnc4)c(F)s3)cc2C(F)(F)F)c1` [Cmp 92, 5-fluoro-4-(pyridin-3-yl)-N-(4-(3-(m-tolyloxy)propyl)-3-(trifluoromethyl)phenyl)thiazol-2-amine], for which the EC50 is less than 1000 nM.

Turning to `Fc1ccc(CCCCCc2ccc(Nc3nc(-c4cccnc4)c(F)s3)cc2C(F)(F)F)cc1` [Cmp 217, 5-fluoro-N-(4-(5-(4-fluorophenyl)pentyl)-3-(trifluoromethyl)phenyl)-4-(pyridin-3-yl)thiazol-2-amine], the EC50 was less than 1000 nM.

Take `CCCCCCCCc1ccc(Nc2nc(-c3cnccn3)c(Cl)s2)cc1C(F)(F)F` [Cmp 170, 5-chloro-N-(4-octyl-3-(trifluoromethyl)phenyl)-4-(pyrazin-2-yl)thiazol-2-amine]: the EC50 is less than 1000 nM.

Staying with this experiment, now noted: Hepatitis C virus, Huh-7, 72 h, read-out: Activity (inhibition of HCV replicon replication).
As to `CCCCCCCCc1ccc(Nc2nc(-c3ccc(OP(=O)(OC)OC)nc3)cs2)cc1C(F)(F)F` [Cmp 134, dimethyl 5-(2-(4-octyl-3-(trifluoromethyl)phenylamino)thiazol-4-yl)pyridin-2-yl phosphate], the EC50 was less than 1000 nM.
